Reference: PubChem BioAssay (NCI)
Several values for one entry are separate records, joined by “and”; a condition that tells them apart may be missing. Equal entries are not always repeated.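 Method: 48-hour compound exposure of cells in 96-well plates, five concentrations, linear interpolation of endpoints. Here, GI50 denotes the concentration required for 50% inhibition of growth. Definition used: TGI = concentration required for complete inhibition of growth.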

Key:
Assay in all cases: NCI anticancer screen, dose series, 48 h
[1] = tested on: K-562 leukemia
[2] = tested on: MOLT-4 leukemia
[3] = tested on: KM12 colon
[4] = tested on: UACC-257 melanoma
[5] = tested on: SN12C renal
[6] = tested on: OVCAR-5 ovarian
[7] = tested on: PC-3 prostate
[8] = tested on: OVCAR-8 ovarian
[9] = tested on: KM20L2 colon
[10] = tested on: LXFL 529 NSCLC

| SMILES | GI50 [1] [µM] | TGI [1] [µM] | GI50 [2] [µM] | TGI [2] | GI50 [3] [µM] | TGI [3] [µM] | GI50 [4] [µM] | TGI [4] | GI50 [5] [µM] | TGI [5] | GI50 [6] [µM] | TGI [6] | GI50 [7] [µM] | TGI [7] [µM] | GI50 [8] [µM] | TGI [8] [µM] | TGI [9] [µM] | TGI [10] [µM] |
| --- | --- | --- | --- | --- | --- | --- | --- | --- | --- | --- | --- | --- | --- | --- | --- | --- | --- | --- |
| CCOC(=O)C(=Cc1c(-c2ccccc2)[nH]c2ccccc12)C(=O)OCC | 3.6 | 24 | 3.81 | 18.8 µM | 3.51 | 12 | 7.33 | 19.3 µM | 5.04 | 55 µM | 13.4 | 41.8 µM | 3.19 | 14.3 | 4.08 | 17.9 | – | – |
| NCCn1c2c(c3ccccc3c1=O)C(=O)c1ccccc1-2 | 0.231 | 3.46 | < 0.0378 | 0.095 µM | 0.325 | 2.38 | 0.64 | 2.64 µM | 0.266 | 2.13 µM | 0.674 | 2.57 µM | 1.11 | 8.73 | 0.0915 | 1.57 | – | – |
| CCOC(=O)c1cc(C(=O)O)c(=O)n2c1[nH]c1ccccc12 | – | > 100 | – | > 100 µM | – | > 100 | – | > 100 µM | – | > 100 µM | – | – | – | – | – | > 100 | > 100 | > 100 |
| Cc1cc(C)c2nccc(NCCCN(C)C)c2c1[N+](=O)[O-] | – | > 100 | – | > 100 µM | – | > 100 | – | 33.7 µM | – | > 100 µM | – | > 100 µM | – | > 100 | – | > 100 | – | – |
| Cc1cc(S(N)(=O)=O)c(S/C(=N\NS(=O)(=O)c2ccccc2)c2ccc(Cl)c(Cl)c2)cc1Cl | 32.9 | > 100 | 30.3 | > 100 µM | 42 | > 100 | 40.3 | > 100 µM | 34.1 | > 100 µM | 52.4 | > 100 µM | 47.4 | > 100 | 32.3 | > 100 | – | – |
| COc1ccccc1-c1nccc(COc2ccccc2C[C@@H](Oc2ncnc3sc(-c4ccc(F)cc4)c(-c4ccc(OCCN5CCN(C)CC5)c(Cl)c4C)c23)C(=O)O)n1 | 3.01 | > 33.6 | 0.0436 | 1.54 µM | 3.33 | 12.1 | 3.01 | 11.2 µM | 1.75 | 3.83 µM | 2.12 | 6.25 µM | 1.96 | 4.81 | 2.9 | > 28.4 | – | – |
| COc1ccc(-c2cn(-c3cc(OC)c(OC)c(OC)c3)c(=O)n2-c2ccccc2)cc1 | > 100 | > 100 | > 100 | > 100 µM | > 100 | > 100 | > 100 | > 100 µM | 84.3 | > 100 µM | > 100 | > 100 µM | > 100 | > 100 | > 100 | > 100 | – | – |
| Cc1cc(Nc2cc(N3CCN(C)CC3)nc(C#Cc3ccccc3)n2)n[nH]1 | 3.79 | 24.4 | 3.46 | 19.2 µM | 0.35 | 11.7 | 3.58 | 15.9 µM | 2.4 | 14.2 µM | 3.58 | 18.8 µM | 3.17 | 25.4 | 6.5 | 22.3 | – | – |
| Cc1cc(C(=O)Nc2cc(Nc3ncccc3-c3ncnc4nc[nH]c34)ccc2F)cc(C(C)(C)C#N)c1 | 0.306 | > 100 | 3.45 | > 100 µM | 2.9 | > 100 | 0.0867 | > 100 µM | 1.91 | > 100 µM | 0.211 | > 100 µM | 7.13 | > 100 | 3.02 | > 100 | – | – |
| NC(=O)c1c(NC(=O)c2cccc(C(F)(F)F)c2)sc2c1CCC(=O)C2 | 0.124 | – | 0.404 | > 20.2 µM | 0.394 | 2.01 | 2.17 | 6.38 µM | 0.392 | > 100 µM | 0.83 | 9.42 µM | 0.218 | 2.1 | 0.519 | > 100 | – | – |
| CCC1(Cl)C(=O)NC(=O)N(C2CC(O)C(CO)O2)C1N=[N+]=[N-] (configuration not stated) | – | > 100 | – | > 100 µM | – | – | – | > 100 µM | – | > 100 µM | – | > 100 µM | – | – | – | > 100 | > 100 | > 100 |
| Fc1ccc(-c2cc(-c3cn[nH]c3-c3ccccn3)ccn2)cc1 | > 25 | > 25 | > 25 | > 25 µM | > 25 | > 25 | > 25 | > 25 µM | > 25 | > 25 µM | > 25 | > 25 µM | > 25 | > 25 | > 25 | > 25 | – | – |
| C=C[C@@]1(C)CC(=O)[C@]2(O)[C@@]3(C)[C@@H](O)CCC(C)(C)[C@@H]3[C@H](O)[C@@H](OC(C)=O)[C@@]2(C)O1 | – | > 100 | – | > 100 µM | – | > 100 | – | > 100 µM | – | > 100 µM | – | > 100 µM | – | > 100 | – | > 100 | – | – |
| O=C1Nc2ccc(Br)cc2C1=Nc1ccc(Cl)cc1 | – | 73.3 | – | > 100 µM | – | 24.8 | – | 79.1 µM | – | 31.2 µM | – | 39.8 µM | – | > 100 | – | 26.7 | – | – |
| C=C1C(=O)C23CC1CCC2C12CO[C@@]3(O)[C@@H](O)C1C(C)(C)C=CC2=O (some centres not stated) | – | > 100 | 2.6 | 2.15 µM and 9.87 µM | – | 29.5 | 2.49 | 1.33 µM and 7.8 µM | 2.03 | 3.87 µM and 4.05 µM | 25 | 9.96 µM and 40.5 µM | – | 7.53 | 3.37 | – | 4.39 | – |
| N#CC1=C(N)Oc2c(sc3c(Br)cccc23)C1c1ccc(F)cc1 (configuration not stated) | 0.275 | 23.9 | 0.473 | 14.2 µM | 0.361 | 15.2 | 13 | 42.7 µM | 1.22 | 18.7 µM | 1.77 | 19.6 µM | 0.405 | 18.1 | 0.76 | 24.4 | – | – |
